From patent US10456434B2, “Extracts obtained from cell line cultures from plants belonging to the Oleaceae family (e.g. Syringa vulgaris), their preparation and use” (CRODA ITALIANA S. P. A., priority 2005, dated 2019)

Columns and labels:
[1] = Metal chelating activity (spectrophotometric), Fe3+; format: binding; conditions: chelation equilibrium constant, calculated for a pure phenylpropanoid
Text: The chelating activities of Syringa vulgaris extracts, verbascoside and isoverbascoside in relation to Fe^2+, Fe^3+, Cu^2+ and Ni^2+ metal ions has been determined by means of spectrophotometric measurements using a Shimadzu 1770 UV spectrophotometer. The activities of chelating agents depends on the association constant (equilibrium) of their reactions with the metals according to the following reaction:
[formula] wherein Keq is the equilibrium constant equal to the ratio of concentrations at equilibrium of a complex and product of equilibrium concentrations of metal ions and a chelator:
[formula] The method used for determining chelating activity is well documented in the literature (Korkina L G, Afarras'er IB. Antioxidant and chelating properties of flavonoids. Adv. Pharmacol., 1997, 38:151-63). The results are expressed as Keg (M^−1) calculated for a pure phenylpropanoid. This way the chelating activity against ferrous (Fe II), ferric (Fe III), copper (Cu II) and nickel ions has been calculated.

[2] = test system: Malassezia furfur ST 8036; experiment: Multiple dilution antimycotic assay, Malassezia furfur; format: cell-based; conditions: assayed at 0.625-5 mg/ml
Procedure: (§1) With the aim of identifying any potential antifungal activity in the Syringa vulgaris extracts, microbiological assays have been prepared, generally known as multiple dilution assays. Such assays have been performed using the following fungal strains: Trycophyton rubrum ATCC 28188 and Malassezia furfur ST 8036. Syringa vulgaris Extracts 1 and 2, verbascoside and isoverbascoside have been assayed at concentrations of […], 1.25 mg/ml, 2.5 mg/ml and 5 mg/ml. The fungal strains used for testing have been inoculated into culture-broth (in Tryptone soy broth medium, for Malassezia furfur the culture medium has been supplemented with 2 ml/100 ml of olive oil) containing Syringa vulgaris extracts 1 and 2, verbascoside and isoverbascoside at the concentrations described above. In parallel with these tests, culture broths containing the microbial strain alone have been prepared (controls). The culture-broths have, been incubated at 30° C. for a period of 28 days. Samples of the various culture-broths have been taken at 0, 7, 14, 21 and 28 days, with the aim of counting the number of CFU/ml in relation to the various fungal strains, by plating the cultures on solid medium. A certain number of serial dilutions have been prepared for each sample in order to determine the fungal load of each culture-broth. Each dilution has been assayed in triplicate on solid medium. […]

[3] = test system: Trycophyton rubrum ATCC 28188; experiment: Multiple dilution antimycotic assay, Trycophyton rubrum; format: cell-based; conditions: assayed at 0.625-5 mg/ml
Procedure: as §1

tyrosinase = experiment: Tyrosinase inhibition, conversion of L-DOPA to DOPAquinone; format: biochemical, Mushroom; conditions: 100 μg/ml
Text: The enzyme tyrosinase catalyses the reactions leading to melanin biosynthesis from tyrosine. […] Substances inhibiting tyrosinase activity produce clearing/bleaching effect on the skin, since they block melanin synthesis. The method used to determine the inhibition of tyrosinase activity in the oxidation reaction of L-tyrosine to L-DOPA is that described in Kim et al. […] Biol. Pharm. Bull. 28(2), 323-327, 2005). The method applied for determination of the inhibition of tyrosinase activity in the conversion of L-DOPA to DOPAquinone is that described in Masamoto et al. (Mushroom tyrosinase inhibitory activity of esculetin isolated from seeds of Euphorbia lathyris L. Biosci. Biotechnol. Biochem., 67(3), 631-634, 2003).

platelets = experiment: ADP induced platelet aggregation in platelet rich plasma; format: cell-based, rabbit; conditions: 1.0 mg/ml
Procedure: Platelet enriched rabbit plasma has been used to assess the platelet anti-aggregating and disaggregating properties of Syringa vulgaris Extract 1, verbascoside and isoverbascoside. Platelet rich plasma has been obtained from rabbit venous blood by mixing it with a 3.8% sodium citrate solution (9:1 v/v). The solution has then been centrifuged at 460×g for 20 minutes. The supernatant has been collected and immediately used for the aggregation assays. Platelet aggregation has been recorded using a Chronolog “Ionised calcium platelet aggregometer” (Chrono-log Co., USA). All measurements have been performed at 37° C. with continuous stirring. […] Then 10 μl of a solution of ADP (final concentration—10 μm) has been added and the luminous transmittance continuously recorded. The results are expressed as the DÒ/DÒÊ ratio, where DÒÊ and DÒ are the luminous transmittance values, in the absence and presence of extract respectively. Platelet disaggregation (the disappearance of pre formed aggregates) has been determined using the same luminous transmittance curve 10 minutes following the addition of ADP. The results are expressed as the DR/DRk ratio, where DRk and DR, are the luminous transmittance in the absence and presence of extract. […]

5 alpha reductase type I = molecular target: T1, 5 alpha reductase type I (Homo sapiens, UniProt P18405); experiment: Type I 5 alpha reductase inhibition (14C testosterone conversion); format: biochemical; conditions: pH 7.0
T1 construct: made in house; host or cells: genetically modified yeast
T1 sequence (P18405 1-259): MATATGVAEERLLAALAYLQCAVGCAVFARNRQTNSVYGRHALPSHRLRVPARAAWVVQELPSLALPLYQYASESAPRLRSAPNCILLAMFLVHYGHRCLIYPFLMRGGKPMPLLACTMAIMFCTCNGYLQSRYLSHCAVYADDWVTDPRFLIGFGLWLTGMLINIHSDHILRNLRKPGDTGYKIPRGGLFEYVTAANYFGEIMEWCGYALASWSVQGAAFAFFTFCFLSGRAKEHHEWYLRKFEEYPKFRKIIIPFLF
Procedure: Determination of the 5 alpha reductase inhibitory activities by Syringa vulgaris extracts, verbascoside and isoverbascoside in comparison to Serenoa repens extracts. Said determination, has been performed using enzymes (5 alpha reductase, type I and type II) produced by genetically modified yeast. Enzyme activities have been determined in the presence of Syringa vulgaris and Serenoa repens extracts, verbascoside isoverbascoside.
Type I 5 alpha reductase activity has been assayed by incubating the enzyme in 0.1M Tris-citrate buffer (pH 7.0), containing 5 μM (^14C) radio-labelled testosterone (Amersham, Sweden) and 5 mM NADPH (Sigma) in a final volume of 5 ml. The solution thus obtained has been incubated for 1 hour at 37° C.
In both assays, the steroids have been extracted using 5 ml of methylene chloride. The extracts have then been dried under a stream of nitrogen and the dried residues obtained have, been dissolved in 20 μl of a chloroform-methanol mixture (2:1 v/v). […] For quantification of the results, the spots have been scraped from the TLC plate and extracted with 2 ml of ethyl acetate. The extracts obtained have been analysed, using scintillation fluid, with the aid of a Wallach […]. The enzyme activity has been calculated from the percentage conversion (C %) of the substrate into final product:
C %=[counted product/(counted substrate+product)]×100.

In the case of CC1OC(OC2C(O)C(COC(=O)C=Cc3ccc(O)c(O)c3)OC(OCCc3ccc(O)c(O)c3)C2O)C(O)C(O)C1O [Isoverbascoside, b-(3,4-dihydroxyphenyl)-ethyl-O-α-L-ramnopyranosyl(1″-3′)-b-D-(6′-O-caffeoil)glucopyranoside], the “Fe^3+ (Keq, M^−1)” value [1] is reported as 130000 ± 40000 M⁻¹, the “antimycotic activity towards Malassezia furfur (in words)” value [2] is reported as “activity comparable to Extract 1” and the “antimycotic activity towards Trycophyton rubrum (in words)” value [3] is reported as “activity comparable to Extract 1”. For the same compound, the “Test LDOPA-DOPAquinone inhibitory activity (%)” value (tyrosinase) was 10%, the “Aggregation (% with respect to control)” value (platelets) was 25 ± 6 % and the IC50 (5 alpha reductase type I) was 19.2 µM.

In the case of C[C@@H]1O[C@@H](O[C@@H]2[C@@H](O)[C@H](OCCc3ccc(O)c(O)c3)O[C@H](CO)[C@H]2OC(=O)/C=C/c2ccc(O)c(O)c2)[C@H](O)[C@H](O)[C@H]1O [Verbascoside, b-(3,4-dihydroxyphenyl)-ethyl-O-α-L-ramnopyranosyl (1″-3′)-b-D-(4′-O-caffeoil)-glucopyranoside], the “Fe^3+ (Keq, M^−1)” value [1] is reported as 120000 ± 50000 M⁻¹, the “antimycotic activity towards Malassezia furfur (in words)” value [2] is reported as “activity comparable to Extract 1” and the “antimycotic activity towards Trycophyton rubrum (in words)” value [3] is reported as “activity comparable to Extract 1”. For the same compound, the “Test LDOPA-DOPAquinone inhibitory activity (%)” value (tyrosinase) was 20.6%, the “Aggregation (% with respect to control)” value (platelets) was 24 ± 6 % and the IC50 (5 alpha reductase type I) was 20.8 µM.
